One test concerns the target T1, Caspase-1 (Mus musculus) (UniProt P29452).
T1 sequence (whole entry): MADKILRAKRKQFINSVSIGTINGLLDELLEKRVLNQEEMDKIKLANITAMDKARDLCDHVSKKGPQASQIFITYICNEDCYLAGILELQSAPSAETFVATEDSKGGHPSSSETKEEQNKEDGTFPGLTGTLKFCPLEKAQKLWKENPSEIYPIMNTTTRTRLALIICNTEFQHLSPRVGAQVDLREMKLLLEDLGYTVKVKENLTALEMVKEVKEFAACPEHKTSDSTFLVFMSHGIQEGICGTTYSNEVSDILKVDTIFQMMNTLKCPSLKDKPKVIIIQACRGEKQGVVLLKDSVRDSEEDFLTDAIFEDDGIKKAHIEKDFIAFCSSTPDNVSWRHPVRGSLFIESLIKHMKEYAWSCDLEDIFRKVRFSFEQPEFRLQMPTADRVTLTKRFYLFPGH
Kind of test: Inhibition of mouse recombinant ICE assessed as ratio of irreversible rate constant K3 to dissociation constant of the reversible binding step Ki pre-incubated for 60 mins with Acetyl-Tyr-Val-Ala-Asp-amino-4-methylcoumarin substrate followed by enzyme addition by fluorescence based assay.

A further test deals with T2, Caspase-3 (Homo sapiens) (UniProt P42574).
T2 sequence (whole entry): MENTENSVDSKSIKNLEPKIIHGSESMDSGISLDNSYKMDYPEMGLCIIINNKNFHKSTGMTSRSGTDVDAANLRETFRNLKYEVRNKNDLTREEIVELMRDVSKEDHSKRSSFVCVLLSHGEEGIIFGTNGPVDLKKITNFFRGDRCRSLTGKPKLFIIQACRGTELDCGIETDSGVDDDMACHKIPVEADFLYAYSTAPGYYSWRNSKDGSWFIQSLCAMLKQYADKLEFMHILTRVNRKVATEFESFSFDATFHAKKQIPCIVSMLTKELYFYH
Kind of test: Inhibition of recombinant CPP32 (unknown origin) assessed as ratio of irreversible rate constant K3 to dissociation constant of the reversible binding step Ki pre-incubated for 60 mins with Acetyl-Tyr-Val-Ala-Asp-amino-4-methylcoumarin substrate followed by enzyme addition by fluorescence based assay.

The target of the next test is T3, Caspase-6 (Homo sapiens) (UniProt P55212).
T3 sequence (whole entry): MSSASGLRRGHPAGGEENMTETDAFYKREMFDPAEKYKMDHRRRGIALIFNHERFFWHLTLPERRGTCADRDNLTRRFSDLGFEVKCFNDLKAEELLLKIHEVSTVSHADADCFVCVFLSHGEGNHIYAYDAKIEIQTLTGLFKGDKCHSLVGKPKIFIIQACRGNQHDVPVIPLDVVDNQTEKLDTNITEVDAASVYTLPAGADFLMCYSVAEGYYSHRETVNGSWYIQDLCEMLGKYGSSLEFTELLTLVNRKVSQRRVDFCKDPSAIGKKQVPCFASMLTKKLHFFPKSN
Put plainly: Inhibition of recombinant MCH2 (unknown origin) assessed as ratio of irreversible rate constant K3 to dissociation constant of the reversible binding step Ki pre-incubated for 60 mins with Acetyl-Tyr-Val-Ala-Asp-amino-4-methylcoumarin substrate followed by enzyme addition by fluorescence based assay.

The target in a further test is Caspase-8 (Homo sapiens) (UniProt Q14790). Kind of test: Inhibition of recombinant MCH5 (unknown origin) assessed as ratio of irreversible rate constant K3 to dissociation constant of the reversible binding step Ki pre-incubated for 60 mins with Acetyl-Tyr-Val-Ala-Asp-amino-4-methylcoumarin substrate followed by enzyme addition by fluorescence based assay.
Sequence of Caspase-8 (Homo sapiens) (Q14790 217-374 limits assumed): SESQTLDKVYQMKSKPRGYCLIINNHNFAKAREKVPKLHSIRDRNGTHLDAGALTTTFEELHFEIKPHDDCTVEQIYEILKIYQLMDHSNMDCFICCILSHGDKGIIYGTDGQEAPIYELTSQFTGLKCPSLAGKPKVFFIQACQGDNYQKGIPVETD
Sequence of Caspase-8 (Homo sapiens) (Q14790 385-479 limits assumed): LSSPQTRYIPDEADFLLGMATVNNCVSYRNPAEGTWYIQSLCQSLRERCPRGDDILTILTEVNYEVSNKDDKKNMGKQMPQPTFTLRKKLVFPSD

For the compound `C[C@H](NC(=O)C(=O)Nc1cc(C(C)(C)C)ccc1C(C)(C)C)C(=O)N[C@@H](CC(=O)O)C(=O)COc1c(F)c(F)cc(F)c1F`, the Ratio at Caspase-1 (Mus musculus) turned out to be 195000 M⁻¹ s⁻¹; on Caspase-3 (Homo sapiens), 221000 M⁻¹ s⁻¹; at Caspase-6 (Homo sapiens), 192000 M⁻¹ s⁻¹; on Caspase-8 (Homo sapiens), 248000 M⁻¹ s⁻¹.
The matching figures for `C[C@H](NC(=O)C(=O)NCCc1ccccc1)C(=O)N[C@@H](CC(=O)O)C(=O)COP(=O)(c1ccccc1)c1ccccc1`: 1.23e+06 M⁻¹ s⁻¹, 169000 M⁻¹ s⁻¹, 131000 M⁻¹ s⁻¹ and 667000 M⁻¹ s⁻¹.
The matching figures for `CC(C)[C@H](NC(=O)C(=O)Nc1ccccc1Br)C(=O)N[C@@H](CC(=O)O)C(=O)COc1c(F)c(F)cc(F)c1F`: 1.08e+06 M⁻¹ s⁻¹, 276000 M⁻¹ s⁻¹, 230000 M⁻¹ s⁻¹ and 1.3e+06 M⁻¹ s⁻¹.
In the case of `CC(C)[C@H](NC(=O)C(=O)Nc1cnccn1)C(=O)N[C@@H](CC(=O)O)C(=O)COc1c(F)c(F)cc(F)c1F`, the Ratio at Caspase-1 (Mus musculus) was determined as 2.57e+06 M⁻¹ s⁻¹; on Caspase-6 (Homo sapiens), 175000 M⁻¹ s⁻¹; on Caspase-8 (Homo sapiens), 1.83e+06 M⁻¹ s⁻¹.
Regarding `CC(C)[C@H](NC(=O)C(=O)Nc1cccc2ccccc12)C(=O)NC(CC(=O)O)C(=O)CF` (mixture of isomers), the Ratio at Caspase-1 (Mus musculus) was 2.17e+06 M⁻¹ s⁻¹; on Caspase-3 (Homo sapiens), 413000 M⁻¹ s⁻¹; at Caspase-6 (Homo sapiens), 199000 M⁻¹ s⁻¹; at Caspase-8 (Homo sapiens), 1.16e+06 M⁻¹ s⁻¹.
The matching figures for `C[C@H](NC(=O)C(=O)Nc1ccc(F)cc1)C(=O)N[C@@H](CC(=O)O)C(=O)COC(=O)c1c(Cl)cccc1Cl`: 11700 M⁻¹ s⁻¹, 22700 M⁻¹ s⁻¹, 18600 M⁻¹ s⁻¹ and 18700 M⁻¹ s⁻¹.
The matching figures for `COc1ccccc1NC(=O)C(=O)N[C@H](C(=O)N[C@@H](CC(=O)O)C(=O)COc1c(F)c(F)cc(F)c1F)C(C)C`: 2.07e+06 M⁻¹ s⁻¹, 10800 M⁻¹ s⁻¹, 61500 M⁻¹ s⁻¹ and 2.68e+06 M⁻¹ s⁻¹.
The corresponding values for `CC(C)[C@H](NC(=O)C(=O)Nc1ccccc1Cc1ccccc1)C(=O)N[C@@H](CC(=O)O)C(=O)COc1c(F)c(F)cc(F)c1F` are 344000 M⁻¹ s⁻¹, 54800 M⁻¹ s⁻¹, 25300 M⁻¹ s⁻¹ and 105000 M⁻¹ s⁻¹.
`C[C@H](NC(=O)C(=O)Nc1ccccc1-c1ccccc1)C(=O)N[C@@H](CC(=O)O)C(=O)COP(=O)(c1ccccc1)c1ccccc1`: the Ratio was 345000 M⁻¹ s⁻¹ at Caspase-1 (Mus musculus), 243000 M⁻¹ s⁻¹ on Caspase-3 (Homo sapiens), 317000 M⁻¹ s⁻¹ on Caspase-6 (Homo sapiens) and 207000 M⁻¹ s⁻¹ on Caspase-8 (Homo sapiens).
The corresponding values for `C[C@H](NC(=O)C(=O)Nc1ccccc1Cl)C(=O)N[C@@H](CC(=O)O)C(=O)COP(=O)(c1ccccc1)c1ccccc1` are 103000 to 1.98e+06 M⁻¹ s⁻¹, 162000 to 564000 M⁻¹ s⁻¹, 247000 to 373000 M⁻¹ s⁻¹ and 179000 to 2.33e+06 M⁻¹ s⁻¹.
The corresponding values for `CC(C)[C@H](NC(=O)C(=O)Nc1cccc2ccccc12)C(=O)N[C@@H](CC(=O)O)C(=O)COc1cccc2ccccc12` are 254000 M⁻¹ s⁻¹, 180000 M⁻¹ s⁻¹, 83700 M⁻¹ s⁻¹ and 177000 M⁻¹ s⁻¹.
For the compound `C[C@H](NC(=O)C(=O)NCc1cccc2ccccc12)C(=O)N[C@@H](CC(=O)O)C(=O)COP(=O)(c1ccccc1)c1ccccc1`, the Ratio at Caspase-1 (Mus musculus) was 191000 M⁻¹ s⁻¹; on Caspase-3 (Homo sapiens) it was 245000 M⁻¹ s⁻¹; at Caspase-6 (Homo sapiens) it was 186000 M⁻¹ s⁻¹; on Caspase-8 (Homo sapiens), 82700 M⁻¹ s⁻¹.
For `C[C@H](NC(=O)C(=O)Nc1ccccc1F)C(=O)N[C@@H](CC(=O)O)C(=O)COC(=O)c1c(Cl)cccc1Cl`, the Ratio is 172000 M⁻¹ s⁻¹ on Caspase-1 (Mus musculus), 68900 M⁻¹ s⁻¹ at Caspase-3 (Homo sapiens), 129000 M⁻¹ s⁻¹ at Caspase-6 (Homo sapiens) and 155000 M⁻¹ s⁻¹ on Caspase-8 (Homo sapiens).
The corresponding values for `C[C@H](NC(=O)C(=O)Nc1cc(C(C)(C)C)ccc1C(C)(C)C)C(=O)N[C@@H](CC(=O)O)C(=O)COP(=O)(c1ccccc1)c1ccccc1` are 211000 M⁻¹ s⁻¹, 104000 M⁻¹ s⁻¹, 308000 M⁻¹ s⁻¹ and 1.34e+06 M⁻¹ s⁻¹.
The corresponding values for `CC(C)[C@H](NC(=O)C(=O)Nc1ccc(F)cc1)C(=O)N[C@@H](CC(=O)O)C(=O)COc1c(F)c(F)cc(F)c1F` are 906000 M⁻¹ s⁻¹, 36300 M⁻¹ s⁻¹, 121000 M⁻¹ s⁻¹ and 338000 M⁻¹ s⁻¹.
The corresponding values for `C[C@H](NC(=O)C(=O)Nc1cc(C(C)(C)C)ccc1C(C)(C)C)C(=O)N[C@@H](CC(=O)O)C(=O)COC(=O)c1c(Cl)cccc1Cl` are 289000 M⁻¹ s⁻¹, 189000 M⁻¹ s⁻¹, 146000 M⁻¹ s⁻¹ and 306000 M⁻¹ s⁻¹.
On to `C[C@H](NC(=O)C(=O)NCc1ccccc1)C(=O)N[C@@H](CC(=O)O)C(=O)COc1c(F)c(F)cc(F)c1F`, for which the Ratio at Caspase-1 (Mus musculus) stood at 13900 M⁻¹ s⁻¹; on Caspase-3 (Homo sapiens), 54300 M⁻¹ s⁻¹; on Caspase-6 (Homo sapiens), 42800 M⁻¹ s⁻¹; at Caspase-8 (Homo sapiens), 23100 M⁻¹ s⁻¹.
The corresponding values for `C[C@H](NC(=O)C(=O)Nc1ccccc1-c1ccccc1)C(=O)N[C@@H](CC(=O)O)C(=O)COc1ccccc1F` are 167000 M⁻¹ s⁻¹, 55600 M⁻¹ s⁻¹, 35000 M⁻¹ s⁻¹ and 37800 M⁻¹ s⁻¹.
The matching figures for `C[C@H](NC(=O)C(=O)NC1CCCCC1)C(=O)N[C@@H](CC(=O)O)C(=O)COC(=O)c1c(Cl)cccc1Cl`: 2.02e+06 M⁻¹ s⁻¹, 1.17e+06 M⁻¹ s⁻¹, 655000 M⁻¹ s⁻¹ and 2.14e+06 M⁻¹ s⁻¹.
The matching figures for `C[C@H](NC(=O)C(=O)Nc1cc(C(F)(F)F)ccc1N1CCOCC1)C(=O)N[C@@H](CC(=O)O)C(=O)COP(=O)(c1ccccc1)c1ccccc1`: 369000 M⁻¹ s⁻¹, 100000 M⁻¹ s⁻¹, 98500 M⁻¹ s⁻¹ and 441000 M⁻¹ s⁻¹.
For `CC(C)[C@H](NC(=O)C(=O)Nc1ccccc1F)C(=O)N[C@@H](CC(=O)O)C(=O)COc1c(F)c(F)cc(F)c1F`, the Ratio at Caspase-1 (Mus musculus) came to 58500 M⁻¹ s⁻¹; on Caspase-3 (Homo sapiens), 5560 M⁻¹ s⁻¹; at Caspase-6 (Homo sapiens), 11200 M⁻¹ s⁻¹; on Caspase-8 (Homo sapiens), 49600 M⁻¹ s⁻¹.
The matching figures for `C[C@H](NC(=O)C(=O)Nc1ccccc1-c1ccccc1)C(=O)N[C@@H](CC(=O)O)C(=O)COC(=O)c1c(Cl)cccc1Cl`: 259000 M⁻¹ s⁻¹, 388000 M⁻¹ s⁻¹, 219000 M⁻¹ s⁻¹ and 125000 M⁻¹ s⁻¹.
The corresponding values for `CC(C)[C@H](NC(=O)C(=O)Nc1cccc2ccccc12)C(=O)N[C@@H](CC(=O)O)C(=O)COc1ccc(O)cc1` are 1.84e+06 M⁻¹ s⁻¹, 286000 M⁻¹ s⁻¹, 69100 M⁻¹ s⁻¹ and 625000 M⁻¹ s⁻¹.
The corresponding values for `CC(C)[C@H](NC(=O)C(=O)Nc1cc(C(C)(C)C)ccc1C(C)(C)C)C(=O)N[C@@H](CC(=O)O)C(=O)COc1c(F)c(F)cc(F)c1F` are 767000 M⁻¹ s⁻¹, 70600 M⁻¹ s⁻¹, 8230 M⁻¹ s⁻¹ and 51300 M⁻¹ s⁻¹.
In the case of `CCCCCCCc1ccc(NC(=O)C(=O)N[C@H](C(=O)N[C@@H](CC(=O)O)C(=O)COc2c(F)c(F)cc(F)c2F)C(C)C)cc1`, the Ratio at Caspase-1 (Mus musculus) was determined as 657000 M⁻¹ s⁻¹; on Caspase-3 (Homo sapiens) it was 11200 M⁻¹ s⁻¹; on Caspase-6 (Homo sapiens), 50000 M⁻¹ s⁻¹; at Caspase-8 (Homo sapiens), 155000 M⁻¹ s⁻¹.
The corresponding values for `CC(C)[C@H](NC(=O)C(=O)NCCc1ccccc1)C(=O)N[C@@H](CC(=O)O)C(=O)COc1c(F)c(F)cc(F)c1F` are 77100 M⁻¹ s⁻¹, 13400 M⁻¹ s⁻¹, 12600 M⁻¹ s⁻¹ and 16600 M⁻¹ s⁻¹.
The matching figures for `CC(C)[C@H](NC(=O)C(=O)NC12CC3CC(CC(C3)C1)C2)C(=O)N[C@@H](CC(=O)O)C(=O)COc1c(F)c(F)cc(F)c1F`: 184000 M⁻¹ s⁻¹, 6330 M⁻¹ s⁻¹, 10700 M⁻¹ s⁻¹ and 59900 M⁻¹ s⁻¹.
Consider `CC(C)[C@H](NC(=O)C(=O)Nc1cccc2ccccc12)C(=O)N[C@@H](CC(=O)O)C(=O)COC(=O)c1c(Cl)cccc1Cl`, for which the Ratio on Caspase-1 (Mus musculus) was determined as 1.05e+06 M⁻¹ s⁻¹; at Caspase-6 (Homo sapiens), 234000 M⁻¹ s⁻¹.
With `CC(C)[C@H](NC(=O)C(=O)Nc1cccc2ccccc12)C(=O)N[C@@H](CC(=O)O)C(=O)COc1c(F)cc(F)cc1F`, the Ratio at Caspase-1 (Mus musculus) was found to be 879000 M⁻¹ s⁻¹; at Caspase-6 (Homo sapiens), 37400 M⁻¹ s⁻¹.
